Results: the NIST ThermoML archive (doi:10.1021/je0601098)

How the values were obtained:
[1] = mn = molality of the nth substance listed, in mol/kg; settings: 298.15 K, 101 kPa, Liquid; for speed of sound: Linear variable-path acoustic interferometer
[2] = 298.15 K, 101 kPa, Liquid; for speed of sound: Linear variable-path acoustic interferometer

CCO [ethanol] + O
[1]
Settings	mass density [kg/m3]	speed of sound [m/s]
m2 = 0	785.207	1142.1
m2 = 0.214	786.407	1144.6
m2 = 0.2705	786.72	1145.9
m2 = 0.3199	786.998	1146.8
m2 = 0.3659	787.262	1148.6
m2 = 0.4543	787.753	1151
m2 = 0.5541	788.3	1153.2
m2 = 0.6437	788.782	1154.8
m2 = 0.743	789.321	1156.4
m2 = 0.8349	789.775	1157.7
m2 = 0.9264	790.279	1159.5
m2 = 1.019	790.734	1160.1

C1COCCO1 [1,4-dioxane]
[2]
Settings	mass density [kg/m3]	speed of sound [m/s]
–	1028.34	1346.3

CCCCO [butan-1-ol]
[2]
Settings	mass density [kg/m3]	speed of sound [m/s]
–	806.024	1241.6

CO [methanol] + O
[1]
Settings	mass density [kg/m3]	speed of sound [m/s]
m2 = 0	786.66	1103.8
m2 = 0.1566	787.454	1106
m2 = 0.2143	787.724	1106.2
m2 = 0.2641	788.016	1106.2
m2 = 0.3211	788.308	1107.2
m2 = 0.4121	788.789	1107.9
m2 = 0.5085	789.27	1109.8
m2 = 0.6159	789.834	1112.6
m2 = 0.7089	790.308	1113.4
m2 = 0.8074	790.823	1114.4
m2 = 0.9136	791.368	1117.1
m2 = 1.018	791.86	1118

CCCCO [butan-1-ol] + O
[1]
Settings	mass density [kg/m3]	speed of sound [m/s]
m2 = 0	806.024	1241.6
m2 = 0.1588	806.701	1242.9
m2 = 0.2034	806.906	1243.3
m2 = 0.2526	807.034	1243.2
m2 = 0.3019	807.215	1243.6
m2 = 0.3998	807.558	1244.5
m2 = 0.5007	807.906	1246.2
m2 = 0.6011	808.262	1247
m2 = 0.705	808.615	1248
m2 = 0.8032	808.946	1248.8
m2 = 0.9017	809.283	1249.7

CCCO [propan-1-ol]
[2]
Settings	mass density [kg/m3]	speed of sound [m/s]
–	799.683	1207

C1CCOC1 [tetrahydrofuran] + O
[1]
Settings	mass density [kg/m3]	speed of sound [m/s]
m2 = 0	882.056	1280.2
m2 = 0.1301	882.394	1281.2
m2 = 0.1845	882.536	1281.7
m2 = 0.2263	882.674	1282
m2 = 0.244	882.753	1282.4
m2 = 0.3258	882.981	1282.9
m2 = 0.4247	883.242	1283.2
m2 = 0.525	883.543	1283.9
m2 = 0.6245	884.032	1284.6
m2 = 0.7309	884.381	1285.1
m2 = 0.8254	884.726	1286
m2 = 0.9243	885.015	1287
m2 = 1.029	885.427	1288
